Source: article PMC3419191, “Identification of Novel Piperazinylquinoxaline Derivatives as Potent Phosphoinositide 3-Kinase (PI3K) Inhibitors” (PLoS ONE, 2012)

Legend:
HCT116 = test: MTT assay, antiproliferative activity against HCT116 cells; type: cell-based; conditions: Homo sapiens, HCT-116, 72 h, mean of at least two determinations
Excerpt: (§1) All synthesized target compounds were firstly tested for their antiproliferative activity against five human cancer cell lines, PC3, A549, HCT116, HL60, and KB, using MTT assay.
(§2) Human prostate cancer PC3 cells, lung adenocarcinoma epithelial A549 cells, colon cancer HCT116 cells, promyelocytic leukemia HL60 cells and nasopharyngeal carcinoma KB cells were obtained from the cell bank of the Institute of Biochemistry and Cell Biology, Chinese Academy of Sciences (Shanghai, China). The inhibitory activity of target compounds against tested cancer cell lines was measured using the MTT assay. PC3, A549, HCT116, HL60, and KB cancer cell lines were cultured in RPMI-1640 medium (Invitrogen, Carlsbad, CA, USA) with heat-inactivated 10% fetal bovine serum, penicillin (100 units/mL) and streptomycin (100 µg/mL) and incubated in an atmosphere with 20% oxygen and 5% carbon dioxide at 37°C. All tested compounds were dissolved in DMSO at concentrations of 10.0 mg/mL and diluted to appropriate concentrations. Cells were plated in 96-well plates for 24 h and subsequently treated with different concentrations of all tested compounds for 72 h. Viable cells were determined using 3-(4,5-dimethylthiazol-2-yl)-2,5-diphenyltetrazolium bromide assay kit (MTT, Sigma) according to operation instructions provided by the manufacturer. The concentration of drug causing 50% inhibition in absorbance compared with control cells (IC50) was calculated using the software of dose-effect analysis with microcomputers.

PC3 = test: MTT assay, antiproliferative activity against PC3 cells; type: cell-based; conditions: Homo sapiens, PC-3, 72 h, mean of at least two determinations
Excerpt: as §1, §2

HL60 = test: MTT assay, antiproliferative activity against HL60 cells; type: cell-based; conditions: Homo sapiens, HL-60, 72 h, mean of at least two determinations
Excerpt: as §1, §2

A549 = test: MTT assay, antiproliferative activity against A549 cells; type: cell-based; conditions: Homo sapiens, 72 h, mean of at least two determinations
Excerpt: as §1, §2

KB = test: MTT assay, antiproliferative activity against KB cells; type: cell-based; conditions: Homo sapiens, 72 h, mean of at least two determinations
Excerpt: as §1, §2

Structure (SMILES) | IC50 (HCT116) | IC50 (PC3) | IC50 (HL60) | IC50 (A549) | melting point | IC50 (KB)
Cc1ccc(S(=O)(=O)c2nc3ccccc3nc2N2CCC(C(N)=O)CC2)cc1 [Compound 5, 2-(4-Carbamoylpiperidin-1-yl)-3-(4-methylphenylfsulfonyl)quinoxaline] | 1.2 µM | 2.28 µM | 0.14 µM | 27.4 µM | 200 to 203 °C | 11.8 µM
O=C(c1ccccc1)N1CCN(c2nc3ccccc3nc2S(=O)(=O)c2ccc(Br)cc2)CC1 [Compound 32, 2-(4-Benzoylpiperazin-1-yl)-3-(4-bromophenylsulfonyl)quinoxaline] | 10.1 µM | 1.4 µM | 17.4 µM | 3.96 µM | 204 to 205 °C | 3.37 µM
CN1CCN(c2nc3ccccc3nc2S(=O)(=O)c2ccc(F)cc2)CC1 [Compound 18, 2-(4-Methylpiperazin-1-yl)-3-(4-fluorophenylsulfonyl)quinoxaline] | 8.21 µM | 3.09 µM | 2.75 µM | 7.95 µM | 147 to 148 °C | 21.6 µM
O=c1cc(N2CCOCC2)oc2c(-c3ccccc3)cccc12 [LY294002, 2-(4-morpholinyl)-8-phenyl-4H-1-benzopyran-4-one, reference compound] | 56 µM | 61.4 µM | 9.94 µM | 89.7 µM | – | 44.8 µM
CC(=O)N1CCN(c2nc3ccccc3nc2S(=O)(=O)c2ccc(Br)cc2)CC1 [Compound 12, 2-(4-Acetylpiperazin-1-yl)-3-(4-bromophenylsulfonyl)quinoxaline] | 0.53 µM | 3.03 µM | 0.12 µM | 9.79 µM | 174 to 178 °C | 4.3 µM
COc1ccc(S(=O)(=O)c2nc3ccccc3nc2N2CCN(C)CC2)cc1 [Compound 16, 2-(4-Methylpiperazin-1-yl)-3-(4-methoxyphenylsulfonyl)quinoxaline] | 2.37 µM | 1.55 µM | 0.54 µM | 8.57 µM | 121 to 124 °C | 2.53 µM
O=C(c1ccccc1)N1CCN(c2nc3ccccc3nc2S(=O)(=O)c2ccc(F)cc2)CC1 [Compound 33, 2-(4-Benzoylpiperazin-1-yl)-3-(4-fluorophenylsulfonyl)quinoxaline] | 8.88 µM | 1.77 µM | 6.95 µM | 1.16 µM | 200 to 202 °C | 1.22 µM
Cc1ccc(S(=O)(=O)c2nc3ccccc3nc2N2CCNCC2)cc1 [Compound 20, 2-(Piperazin-1-yl)-3-(4-methylphenylsulfonyl)quinoxaline] | 0.47 µM | 1.32 µM | 0.12 µM | 14.4 µM | – | 7.26 µM
NC(=O)C1CCN(c2nc3ccccc3nc2S(=O)(=O)c2ccc(F)cc2)CC1 [Compound 8, 2-(4-Carbamoylpiperidin-1-yl)-3-(4-fluorophenylsulfonyl)quinoxaline] | 7.13 µM | 4.36 µM | 4.15 µM | 10.2 µM | 198 to 202 °C | 6.45 µM
Cc1ccc(S(=O)(=O)c2nc3ccccc3nc2N2CCN(C(=O)c3ccccc3)CC2)cc1 [Compound 30, 2-(4-Benzoylpiperazin-1-yl)-3-(4-methylphenylsulfonyl)quinoxaline] | 6.9 µM | 5.81 µM | 17.3 µM | 8.03 µM | 182 to 185 °C | 3.67 µM
Cc1ccc(S(=O)(=O)N2CCN(c3nc4ccccc4nc3S(=O)(=O)c3ccc(Br)cc3)CC2)cc1 [Compound 47, 2-(4-(4-Methylphenylsulfonyl)piperazin-1-yl)-3-(4-bromophenylsulfonyl)-quinoxaline] | 5.07 µM | 4.89 µM | 10.3 µM | 19.5 µM | 214 to 216 °C | 2.73 µM
O=S(=O)(c1ccc(F)cc1)c1nc2ccccc2nc1N1CCNCC1 [Compound 23, 2-(Piperazin-1-yl)-3-(4-fluorophenylsulfonyl)quinoxaline] | 2.43 µM | 2.05 µM | 1.39 µM | 2.79 µM | – | 4.58 µM
O=C(c1ccc(Cl)cc1)N1CCN(c2nc3ccccc3nc2S(=O)(=O)c2ccc(Br)cc2)CC1 [Compound 37, 2-(4-(4-Chlorobenzoyl)piperazin-1-yl)-3-(4-bromophenylsulfonyl)quinoxaline] | 10.6 µM | 2.89 µM | 6.11 µM | > 50 µM | 214 to 216 °C | 5.09 µM
COc1ccc(S(=O)(=O)c2nc3ccccc3nc2N2CCNCC2)cc1 [Compound 21, 2-(Piperazin-1-yl)-3-(4-methoxyphenylsulfonyl)quinoxaline] | 0.63 µM | 0.68 µM | 0.16 µM | 1.37 µM | 142 to 144 °C | 11.5 µM
Cc1ccc(S(=O)(=O)c2nc3ccccc3nc2N2CCN(CCCN3CCOCC3)CC2)cc1 [Compound 50, 2-(4-(3-Morpholinopropyl)piperazin-1-yl)-3-(4-methylphenylsulfonyl)quinoxaline] | 0.31 µM | 3.83 µM | – | 0.51 µM | – | –
COc1ccc(S(=O)(=O)c2nc3ccccc3nc2N2CCN(C(=O)c3ccc(Cl)cc3)CC2)cc1 [Compound 36, 2-(4-(4-Chlorobenzoyl)piperazin-1-yl)-3-(4-methoxyphenylsulfonyl)quinoxaline] | 9.62 µM | 2.43 µM | 5.58 µM | > 50 µM | 179 °C | 6.03 µM

The remaining compounds from weak to strong by IC50 (HCT116), led by results:

IC50 (HCT116) | IC50 (PC3) | IC50 (HL60) | IC50 (A549) | melting point | IC50 (KB) | Structure (SMILES)
17.2 µM | 3.63 µM | 6.93 µM | 7.43 µM | 166 to 169 °C | 5.65 µM | COc1ccc(S(=O)(=O)c2nc3ccccc3nc2N2CCN(C(=O)c3ccccc3)CC2)cc1 [Compound 31, 2-(4-Benzoylpiperazin-1-yl)-3-(4-methoxyphenylsulfonyl)quinoxaline]
4.34 µM | 3.17 µM | 1.78 µM | 7.12 µM | 108 to 112 °C | 6.15 µM | CC(=O)N1CCN(c2nc3ccccc3nc2S(=O)(=O)c2ccc(F)cc2)CC1 [Compound 13, 2-(4-Acetylpiperazin-1-yl)-3-(4-fluorophenylsulfonyl)quinoxaline]
3.66 µM | 2.18 µM | 0.48 µM | 18.6 µM | 160 to 162 °C | 10.3 µM | COc1ccc(S(=O)(=O)c2nc3ccccc3nc2N2CCN(C(C)=O)CC2)cc1 [Compound 11, 2-(4-Acetylpiperazin-1-yl)-3-(4-methoxyphenylsulfonyl)quinoxaline]
2.59 µM | 9.3 µM | – | 2.1 µM | – | – | COc1ccc(S(=O)(=O)c2nc3ccccc3nc2N2CCN(CCCN3CCOCC3)CC2)cc1 [Compound 51, 2-(4-(3-Morpholinopropyl)piperazin-1-yl)-3-(4-methoxyphenylsulfonyl)-quinoxaline]
2.55 µM | 2.28 µM | 0.21 µM | 17 µM | 185 to 187 °C | 10.2 µM | COc1ccc(S(=O)(=O)c2nc3ccccc3nc2N2CCC(C(N)=O)CC2)cc1 [Compound 6, 2-(4-Carbamoylpiperidin-1-yl)-3-(4-methoxyphenylsulfonyl)quinoxaline]
2.2 µM | 2.34 µM | 1.95 µM | 3.45 µM | 119 to 123 °C | 2.03 µM | CC1CN(c2nc3ccccc3nc2S(=O)(=O)c2ccc(F)cc2)CCN1 (stereo not drawn) [Compound 28, 2-(3-Methylpiperazin-1-yl)-3-(4-fluorophenylsulfonyl)quinoxaline]
1.92 µM | 3.48 µM | 9.28 µM | 49.5 µM | 174 to 175 °C | 2.68 µM | Cc1ccc(S(=O)(=O)c2nc3ccccc3nc2N2CCN(S(=O)(=O)c3ccc(C)cc3)CC2)cc1 [Compound 45, 2-(4-(4-Methylphenylsulfonyl)piperazin-1-yl)-3-(4-methylphenylsulfonyl)-quinoxaline]
1.61 µM | 1.17 µM | 0.15 µM | 12.1 µM | 209 to 210 °C | 4.22 µM | NC(=O)C1CCN(c2nc3ccccc3nc2S(=O)(=O)c2ccc(Br)cc2)CC1 [Compound 7, 2-(4-Carbamoylpiperidin-1-yl)-3-(4-bromophenylsulfonyl)quinoxaline]
0.93 µM | 4.8 µM | – | 1.12 µM | – | – | O=S(=O)(c1ccc(F)cc1)c1nc2ccccc2nc1N1CCN(CCCN2CCOCC2)CC1 [Compound 53, 2-(4-(3-Morpholinopropyl)piperazin-1-yl)-3-(4-fluorophenylsulfonyl)quinoxaline]
